Measured values published in the supplement of paper PMC11061612.

Experiments:
Experiment in all cases: combination Emax (second highest fraction inhibited in the dose matrix, 72 h); higher = more inhibition; extreme values may be limits of the assay
[1] = tested on: BICR78 (Oral Cavity Carcinoma)
Method in brief: (§1)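 Cell lines grown in DMEM/F12 or RPMI with 10% FBS were plated in 1536-well plates and held 24 hours at 37°C, 5% CO2 before 72 hours of exposure to two-drug dose matrices, with DMSO typically at 0.2%. CellTiter-Glo 2.0 luminescence gave viability, which was converted to inhibition. Vehicle wells were set to 0 and blank wells to 1. Combination Emax is the second-highest inhibition in the matrix, and Bliss excess is the observed combination effect minus the expected EA + EB − EA·EB, where EA and EB are the single-agent effects.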

[2] = tested on: EFM-192A (Breast Carcinoma)
Method in brief: as §1

[3] = tested on: PA-TU-8902 (Pancreatic Carcinoma)
Method in brief: as §1

[4] = tested on: RCC10RGB (Kidney Carcinoma)
Method in brief: as §1

[5] = tested on: YT (Other Blood Carcinomas)
Method in brief: as §1

[6] = tested on: HCT-116 (Colorectal Carcinoma)
Method in brief: as §1

[7] = tested on: U-118-MG (Low Grade Glioma)
Method in brief: as §1

[8] = tested on: SKN-3 (Head and Neck Carcinoma)
Method in brief: as §1

[9] = tested on: NCI-H1688 (Small Cell Lung Carcinoma)
Method in brief: as §1

[10] = tested on: SNU-61 (Colorectal Carcinoma)
Method in brief: as §1

[11] = tested on: HLE (Hepatocellular Carcinoma)
Method in brief: as §1

[12] = tested on: NOMO-1 (Acute Myeloid Leukemia)
Method in brief: as §1

[13] = tested on: CAL-39 (Other Solid Carcinomas)
Method in brief: as §1

[14] = tested on: KG-1 (Acute Myeloid Leukemia)
Method in brief: as §1

Saos-2 (Osteosarcoma) = tested on: Saos-2 (Osteosarcoma)
Method in brief: as §1

D-392MG (Glioblastoma) = tested on: D-392MG (Glioblastoma)
Method in brief: as §1

[15] = tested on: P31-FUJ (Acute Myeloid Leukemia)
Method in brief: as §1

[16] = tested on: GDM-1 (Acute Myeloid Leukemia)
Method in brief: as §1

HuO9 (Osteosarcoma) = tested on: HuO9 (Osteosarcoma)
Method in brief: as §1

[17] = tested on: HOP-92 (Non-Small Cell Lung Carcinoma)
Method in brief: as §1

Structure (SMILES) | combination Emax [1] | combination Emax [2] | combination Emax [3] | combination Emax [4] | combination Emax [5] | combination Emax [6] | combination Emax [7] | combination Emax [8] | combination Emax [9] | combination Emax [10] | combination Emax [11] | combination Emax [12] | combination Emax [13] | combination Emax [14] | combination Emax (Saos-2 (Osteosarcoma)) | combination Emax (D-392MG (Glioblastoma)) | combination Emax [15] | combination Emax [16] | combination Emax (HuO9 (Osteosarcoma)) | combination Emax [17]
CN(C)CCCOc1ccc(-c2ccc3ncc4c(c3c2)n(C2CCOCC2)c(=O)n4C)cn1 [AZD0156] + C=CCn1c(=O)c2cnc(Nc3ccc(N4CCN(C)CC4)cc3)nc2n1-c1cccc(C(C)(C)O)n1 [AZD1775] (first compound max 1 µM, partner max 1 µM) | 0.311 | 0.353 | 0.252 | 0.464 | 0.888 | 0.494 | 0.316 | 0.139 | 0.646 | 0.248 | 0.747 | 0.96 | 0.376 | 0.357 | 0.494 | 0.18 | 0.912 | 0.823 | 0.709 | 0.631
CN(C)CCCOc1ccc(-c2ccc3ncc4c(c3c2)n(C2CCOCC2)c(=O)n4C)cn1 [AZD0156] + CCN(CCO)CCCOc1ccc2c(Nc3cc(CC(=O)Nc4cccc(F)c4)[nH]n3)ncnc2c1 [AZD2811] (first compound max 1 µM, 7x7, partner max 1 µM) | 0.182 | 0.269 | 0.0699 | 0.143 | 0.591 | 0.287 | 0.194 | 0.0518 | 0.143 | 0.0613 | 0.414 | 0.501 | 0.33 | 0.328 | 0.369 | 0.0413 | 0.882 | 0.81 | 0.224 | 0.383
CN(C)CCCOc1ccc(-c2ccc3ncc4c(c3c2)n(C2CCOCC2)c(=O)n4C)cn1 [AZD0156] + C[C@@H]1COCCN1C2=NC(=NC(=C2)C3(CC3)[S@](=N)(=O)C)C4=C5C=CNC5=NC=C4 [AZD6738] (first compound max 1 µM, 7x7, partner max 10 µM) | 0.696 | 0.245 | 0.41 | 0.403 | 0.727 | 0.665 | 0.528 | 0.414 | 0.382 | 0.299 | 0.778 | 0.94 | 0.5 | 0.711 | 0.394 | 0.374 | 0.912 | 0.52 | 0.838 | 0.665
CN(C)CCCOc1ccc(-c2ccc3ncc4c(c3c2)n(C2CCOCC2)c(=O)n4C)cn1 [AZD0156] + O=C(c1cc(Cc2n[nH]c(=O)c3ccccc23)ccc1F)N1CCN(C(=O)C2CC2)CC1 [Olaparib] (first compound max 3 µM, partner max 3 µM) | 0.129 | 0.248 | 0.239 | 0.229 | 0.212 | 0.281 | 0.304 | 0.283 | 0.206 |  | 0.335 | 0.321 | 0.331 | 0.336 | 0.218 | 0.131 | 0.368 | 0.533 | 0.49 | 0.256
C=CCn1c(=O)c2cnc(Nc3ccc(N4CCN(C)CC4)cc3)nc2n1-c1cccc(C(C)(C)O)n1 [AZD1775] + C1CN(CCC1(C(=O)N[C@@H](CCO)C2=CC=C(C=C2)Cl)N)C3=NC=NC4=C3C=CN4 [Capivasertib] (first compound max 3 µM, partner max 3 µM) | 0.441 | 0.494 | 0.527 | 0.583 | 0.949 | 0.667 | 0.577 | 0.61 | 0.687 |  | 0.858 | 0.964 | 0.782 | 0.852 | 0.757 | 0.42 | 0.999 | 0.824 | 0.902 | 0.551
C=CCn1c(=O)c2cnc(Nc3ccc(N4CCN(C)CC4)cc3)nc2n1-c1cccc(C(C)(C)O)n1 [AZD1775] + C[C@@H]1COCCN1C2=NC(=NC(=C2)C3(CC3)[S@](=N)(=O)C)C4=C5C=CNC5=NC=C4 [AZD6738] (first compound max 1 µM, partner max 10 µM) | 0.667 | 0.39 | 0.49 | 0.538 | 0.897 | 0.757 | 0.662 | 0.648 | 0.789 | 0.404 | 0.886 | 0.978 | 0.598 | 0.83 | 0.823 | 0.483 | 0.952 | 0.861 | 0.94 | 0.643
